Laboratory results: PMC7587962, “Evaluation of Cytotoxicity and α-Glucosidase Inhibitory Activity of Amide and Polyamino-Derivatives of Lupane Triterpenoids” (Molecules, 2020)
Where two headings read alike, the source gives them in different places.

Key:
[1] = tested on: U251; assay: NCI-60 SRB screen: CNS cancer U251; format: cell-based; conditions: Homo sapiens, U251
[2] = tested on: OVCAR-4; assay: NCI-60 SRB screen: ovarian cancer OVCAR-4; format: cell-based; conditions: Homo sapiens; OVCAR-4; five concentrations, 48 h, SRB; read-out: GI50
[3] = tested on: SNB-19; assay: NCI-60 SRB screen: CNS cancer SNB-19; format: cell-based, human; conditions: SNB-19
[4] = tested on: HS 578T; assay: NCI-60 SRB screen: breast cancer HS 578T; format: cell-based, human; conditions: HS 578T
[5] = tested on: NCI/ADR-RES; assay: NCI-60 SRB screen: ovarian cancer NCI/ADR-RES; format: cell-based, human
[6] = tested on: IGROV1; assay: NCI-60 SRB screen: ovarian cancer IGROV1; format: cell-based, human; conditions: IGROV1
[7] = tested on: 60 human tumor cell lines; assay: cells
[8] = tested on: CNS cancer subpanel; assay: NCI-60 screen, subpanel CNS cancer
[9] = tested on: OVCAR-5; assay: NCI-60 SRB screen: ovarian cancer OVCAR-5; format: cell-based, human; conditions: OVCAR-5
[10] = tested on: MOLT-4; assay: NCI-60 SRB screen: leukemia MOLT-4; format: cell-based; conditions: Homo sapiens, 48 h, MOLT-4
[11] = tested on: NSCL cancer subpanel; assay: NCI-60 screen, subpanel NSCL cancer
[12] = tested on: MDA-MB-468; assay: NCI-60 SRB screen: breast cancer MDA-MB-468; format: cell-based, human
[13] = tested on: Colon Cancer subpanel; assay: NCI-60 screen, subpanel Colon Cancer
[14] = tested on: Leukemia subpanel; assay: NCI-60 screen, subpanel Leukemia
[15] = tested on: SK-MEL-28; assay: NCI-60 SRB screen: melanoma SK-MEL-28; format: cell-based, human; conditions: SK-MEL-28
[16] = tested on: MCF7; assay: NCI-60 SRB screen: breast cancer MCF7; format: cell-based; conditions: Homo sapiens, 48 h, MCF7
[17] = tested on: SF-295; assay: NCI-60 SRB screen: CNS cancer SF-295; format: cell-based, human; conditions: SF-295
[18] = tested on: SNB-75; assay: NCI-60 SRB screen: CNS cancer SNB-75; format: cell-based, human; conditions: SNB-75
[19] = tested on: A549/ATCC; assay: NCI-60 SRB screen: non-small cell lung cancer A549/ATCC; format: cell-based, human; conditions: A549/ATCC
[20] = tested on: CCRF-CEM; assay: NCI-60 SRB screen: leukemia CCRF-CEM; format: cell-based; conditions: Homo sapiens, 48 h
[21] = tested on: NCI-H23; assay: NCI-60 SRB screen: non-small cell lung cancer NCI-H23; format: cell-based, human; conditions: NCI-H23
[22] = tested on: HOP-92; assay: NCI-60 SRB screen: non-small cell lung cancer HOP-92; format: cell-based, human; conditions: HOP-92
[23] = tested on: M14; assay: NCI-60 SRB screen: melanoma M14; format: cell-based, human; conditions: M14
[24] = tested on: Melanoma subpanel; assay: NCI-60 screen, subpanel Melanoma
[25] = tested on: EKVX; assay: NCI-60 SRB screen: non-small cell lung cancer EKVX; format: cell-based, human
[26] = tested on: HL-60(TB); assay: NCI-60 SRB screen: leukemia HL-60(TB); format: cell-based; conditions: Homo sapiens, 48 h, HL-60(TB)
[27] = tested on: SR; assay: NCI-60 SRB screen: leukemia SR; format: cell-based; conditions: Homo sapiens, 48 h
[28] = tested on: UACC-62; assay: NCI-60 SRB screen: melanoma UACC-62; format: cell-based, human; conditions: UACC-62
[29] = tested on: OVCAR-3; assay: NCI-60 SRB screen: ovarian cancer OVCAR-3; format: cell-based, human; conditions: OVCAR-3
[30] = tested on: SK-MEL-5; assay: NCI-60 SRB screen: melanoma SK-MEL-5; format: cell-based, human; conditions: SK-MEL-5
[31] = tested on: NCI-H460; assay: NCI-60 SRB screen: non-small cell lung cancer NCI-H460; format: cell-based; conditions: Homo sapiens, 48 h, NCI-H460
[32] = tested on: NCI-H322M; assay: NCI-60 SRB screen: non-small cell lung cancer NCI-H322M; format: cell-based, human
[33] = tested on: Renal Cancer subpanel; assay: NCI-60 screen, subpanel Renal Cancer
[34] = tested on: UACC-257; assay: NCI-60 SRB screen: melanoma UACC-257; format: cell-based, human; conditions: UACC-257
[35] = tested on: Ovarian Cancer subpanel; assay: NCI-60 screen, subpanel Ovarian Cancer
[36] = Homo sapiens, five concentrations, 48 h, SRB, read-out: GI50
[37] = single dose 10 µM, read-out: Percentage Cell Growth
[38] = five concentrations, SRB, read-out: GI50

Work on `C=C(C)[C@@H]1CC[C@]2(C(=O)NCCNCCNCCN)CC[C@]3(C)[C@H](CC[C@@H]4[C@@]5(C)CCC(=O)C(C)(C)[C@@H]5CC[C@]43C)[C@@H]12` [Compound 11] yielded an activity at 10 µM ([1]; U-251, 48 h, single dose 10 µM, read-out: Percentage Cell Growth) of -81.8%, a GI50 ([1]; U-251, five concentrations, 48 h, SRB, read-out: GI50) of 7.34 µM and a GI50 [2] of 7.39 µM. For the same compound, the GI50 [3, 36] was 8.5 µM, the “Percentage Cell Growth” value ([3]; single dose 10 µM) was −78.54% and the “Percentage Cell Growth” value ([4]; single dose 10 µM) was 47.76%. For the same compound, the GI50 [4, 36] was 8.3 µM, the GI50 [5, 36] was 8.41 µM and the “Percentage Cell Growth” value ([5]; single dose 10 µM) was −73.33%. The GI50 ([6]; Homo sapiens, IGROV-1, five concentrations, 48 h, SRB, read-out: GI50) was 6.42 µM, the “Percentage Cell Growth” value ([6]; single dose 10 µM) was −84.81% and the GI50 ([7]; read-out: GI50 ranges against all panels of NCI60) was 5.6 to 50 µM. For the same compound, the GI50 ([7]; read-out: MID a, average sensitivity of all cell line (GI50-MID)) was 9.17 µM, the “MID b, average sensitivity of all cell line of particular subpanel” value (shortened to “MID b, average sensitivity”) [8] was 7.76 µM and the “Selectivity, ratio MID a: MID b” value [8] was 1.18. The GI50 [9, 36] was 8.78 µM, the “Percentage Cell Growth” value ([9]; single dose 10 µM) was −44.11% and the activity at 10 µM [10, 37] was -16.3%. For the same compound, the GI50 [10, 38] was 6.96 µM, the “MID b, average sensitivity” value [11] was 7.58 µM and the “Selectivity, ratio MID a: MID b” value [11] was 1.21. For the same compound, the GI50 [12, 36] was 8.09 µM, the “Percentage Cell Growth” value ([12]; single dose 10 µM) was −49.06% and the “MID b, average sensitivity” value [13] was 7.68 µM. For the same compound, the “Selectivity, ratio MID a: MID b” value [13] was 1.19, the “MID b, average sensitivity” value [14] was 7.73 µM and the “Selectivity, ratio MID a: MID b” value [14] was 1.19. For the same compound, the GI50 [15, 36] was 8.49 µM, the “Percentage Cell Growth” value ([15]; single dose 10 µM) was −73.91% and the activity at 10 µM [16, 37] was -58%. The GI50 [16, 38] was 7.38 µM, the GI50 [17, 36] was 9.42 µM and the “Percentage Cell Growth” value ([17]; single dose 10 µM) was −54.47%. The GI50 [18, 36] was 6.26 µM, the “Percentage Cell Growth” value ([18]; single dose 10 µM) was −41.55% and the “Percentage Cell Growth” value ([19]; single dose 10 µM) was −76.50%. The GI50 [19, 36] was 7.69 µM, the activity at 10 µM [20, 37] was -11.3% and the GI50 [20, 38] was 9.65 µM. The GI50 [21, 36] was 9.14 µM, the “Percentage Cell Growth” value ([21]; single dose 10 µM) was −35.23% and the “Percentage Cell Growth” value ([22]; single dose 10 µM) was −65.19%. The GI50 [22, 36] was 2.93 µM, the GI50 [23, 36] was 8.38 µM and the “Percentage Cell Growth” value ([23]; single dose 10 µM) was −62.82%. The “MID b, average sensitivity” value [24] was 12.84 µM, the “Selectivity, ratio MID a: MID b” value [24] was 0.71 and the GI50 [25, 36] was 7.34 µM. The “Percentage Cell Growth” value ([25]; single dose 10 µM) was 11.37%, the activity at 10 µM [26, 37] was -35.6% and the GI50 [26, 38] was 8.88 µM. For the same compound, the activity at 10 µM [27, 37] was 4.96%, the GI50 [27, 38] was 5.91 µM and the GI50 [28, 36] was 8.96 µM. The “Percentage Cell Growth” value ([28]; single dose 10 µM) was −77.94%, the GI50 [29, 36] was 7.65 µM and the “Percentage Cell Growth” value ([29]; single dose 10 µM) was −72.48%. For the same compound, the GI50 [30, 36] was 6.98 µM, the “Percentage Cell Growth” value ([30]; single dose 10 µM) was −86.18% and the activity at 10 µM [31, 37] was -90.9%. The GI50 [31, 38] was 9.4 µM, the GI50 [32, 36] was 7.32 µM and the “Percentage Cell Growth” value ([32]; single dose 10 µM) was −81.08%. For the same compound, the “MID b, average sensitivity” value [33] was 12.52 µM, the “Selectivity, ratio MID a: MID b” value [33] was 0.73 and the GI50 [34, 36] was 7.91 µM. For the same compound, the “Percentage Cell Growth” value ([34]; single dose 10 µM) was −10.66%, the “MID b, average sensitivity” value [35] was 8.24 µM and the “Selectivity, ratio MID a: MID b” value [35] was 1.11.
